In patent US11780840B2 (Incyte Corporation, priority 2020, dated 2023):

Tests used:
[1] = molecular target: T1, catalytic domain (JH1, amino acids 826-1132) of human JAK2 (Homo sapiens, UniProt O60674); experiment: JAK2 LanthaScreen JH1 Binding Assay; details: JAK2 JH1 (1.5 nM), 50 nM fluorescent JAK2-JH1 tracer, 2 hours at 25° C.; read-out: JH1 BIND
T1 construct: catalytic domain (JH1, amino acids 826-1132) of human JAK2; FLAG (N); purchased Carna Biosciences 08-445-20N; host or cells: baculovirus expression system
In short: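 FLAG-tagged, biotinylated JAK2 JH1 (aa 826-1132, baculovirus-expressed; 1.5 nM) incubated 2 h at 25° C with compounds, 50 nM fluorescent tracer and 0.5 nM Streptavidin-Tb in Tris pH 7.5 buffer with MgCl2, Brij-35, BSA, EGTA, glycerol, DTT. Nonspecific binding defined with 2 mM ATP; TR-FRET IC50 from four-parameter fit.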

[2] = molecular target: T2, pseudo-kinase domain (JH2, amino-acids 536-812 with 3 surface mutations W659A, W777A, F794H) of human Wild Type JAK2 (Homo sapiens, UniProt O60674, F794H/W659A/W777A); experiment: JAK2 LanthaScreen JH2-WT Binding Assay; details: JAK2 JH2-WT (0.145 nM), 50 nM Fluorescent JAK2-JH2 Tracer, 1 hour at 25° C.; read-out: JH2 BIND WT
T2 construct: pseudo-kinase domain (JH2, amino-acids 536-812 with 3 surface mutations W659A, W777A, F794H); His (C); Avi (biotinylated) (C); purchased BPS Bioscience 79463; host or cells: baculovirus expression system
In short: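 IC50 values derive from four-parameter fits of LanthaScreen signal, measuring displacement of 50 nM fluorescent tracer from 0.145 nM biotinylated, baculovirus-expressed JH2 (536-812) detected by 0.25 nM streptavidin-Tb. Incubation lasts 1 hour at 25° C, pH 7.5.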

[3] = molecular target: T3, pseudo-kinase domain (JH2, amino-acids 536-812 with 3 surface mutations W659A, W777A, F794H) of human V617F mutant JAK2 (Homo sapiens, UniProt O60674, F794H/V617F/W659A/W777A); experiment: JAK2 LanthaScreen JH2-V617F Binding Assay; details: JAK2 JH2-V617F (0.26 nM), 50 nM Fluorescent JAK2-JH2 Tracer, 1 hour at 25° C.; read-out: JH2 BIND V617F
T3 construct: pseudo-kinase domain (JH2, amino-acids 536-812 with 3 surface mutations W659A, W777A, F794H); His (C); Avi (biotinylated) (C); purchased BPS Bioscience 79498; host or cells: baculovirus expression system
In short: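 Competition of compounds with a fluorescent tracer (50 nM) for the biotinylated domain (0.26 nM), detected via streptavidin-Tb (0.25 nM) after 1 h at 25° C in pH 7.5 Tris buffer containing glycerol, BSA and Brij-35. ATP at 2 mM gave background. IC50 by four-parameter fit.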

T2 sequence (O60674 536-812 W659A/W777A/F794H): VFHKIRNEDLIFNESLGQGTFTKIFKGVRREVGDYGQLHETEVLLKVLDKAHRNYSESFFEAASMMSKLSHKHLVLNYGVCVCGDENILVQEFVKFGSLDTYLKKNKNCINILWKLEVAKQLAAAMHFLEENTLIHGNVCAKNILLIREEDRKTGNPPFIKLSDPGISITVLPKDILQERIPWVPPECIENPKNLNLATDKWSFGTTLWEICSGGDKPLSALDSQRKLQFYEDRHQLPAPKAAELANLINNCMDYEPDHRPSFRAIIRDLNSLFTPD
T1 sequence (O60674 826-1132): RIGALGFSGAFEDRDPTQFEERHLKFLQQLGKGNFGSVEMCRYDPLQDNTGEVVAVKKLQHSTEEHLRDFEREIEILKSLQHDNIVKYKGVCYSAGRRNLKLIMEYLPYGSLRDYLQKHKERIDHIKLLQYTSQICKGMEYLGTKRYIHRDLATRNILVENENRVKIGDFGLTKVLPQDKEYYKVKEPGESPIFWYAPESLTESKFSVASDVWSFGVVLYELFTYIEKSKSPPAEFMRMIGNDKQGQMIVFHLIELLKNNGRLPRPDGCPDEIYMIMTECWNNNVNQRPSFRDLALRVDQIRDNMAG
T3 sequence (O60674 536-812 V617F/W659A/W777A/F794H): as the sequence (O60674 536-812 W659A/W777A/F794H) above, with V82F counted along it

| Structure (SMILES) | IC50 [1] [nM] | IC50 [2] [nM] | IC50 [3] [nM] |
| --- | --- | --- | --- |
| CC(C)n1c(=O)n(C)c2cnc3[nH]c(Cc4ccc(C#N)cc4)c(-c4ccc5c(cnn5C)c4)c3c21 [Example 96, 4-((1-Isopropyl-3-methyl-8-(1-methyl-1H-indazol-5-yl)-2-oxo-1,2,3,6-tetrahydroimidazo [4,5-d]pyrrolo[2,3-b]pyridin-7-yl)methyl) benzonitrile] | > 1000 | > 1000 | > 1000 |
| CCc1[nH]c2ncc3c(c2c1-c1ccc2c(cnn2C)c1)n(C1CCCC1)c(=O)n3C [Example 97, 1-Cyclopentyl-7-ethyl-3-methyl-8-(1-methyl-1H-indazol-5-yl)-3,6-dihydroimidazo[4,5-d]pyrrolo[2,3-b]pyridin-2(1H)-one] | > 1000 | 10 to 100 | 100 to 500 |
| Cn1ncc2cc(-c3c(C(=O)NC4CC4)[nH]c4ncc5c(c34)n(C3CCCC3)c(=O)n5C)ccc21 [Example 98, 1-Cyclopentyl-N-cyclopropyl-3-methyl-8-(1-methyl-1H-indazol-5-yl)-2-oxo-1,2,3,6-tetrahydroimidazo [4,5-d]pyrrolo[2,3-b]pyridine-7-carboxamide] | > 1000 | 10 to 100 | 10 to 100 |
| Cn1ncc2cc(-c3c(S(C)(=O)=O)[nH]c4ncc5c(c34)n(C3CCCC3)c(=O)n5C)ccc21 [Example 99, 1-Cyclopentyl-3-methyl-8-(1-methyl-1H-indazol-5-yl)-7-(methylsulfonyl)-3,6-dihydroimidazo [4,5-d]pyrrolo[2,3-b] pyridin-2(1H)-one] | > 1000 | 500 to 1000 | 500 to 1000 |
| CC(C)n1c(=O)n(C)c2cnc3[nH]c(-c4cnn(C)c4)c(C#Cc4ccccc4)c3c21 [Example 100, 1-Isopropyl-3-methyl-7-(1-methyl-1H-pyrazol-4-yl)-8-(phenylethynyl)-3,6-dihydroimidazo[4,5-d]pyrrolo[2,3-b]pyridin-2(1H)-one] | 500 to 1000 | 100 to 500 | 100 to 500 |
| Cn1cc(-c2[nH]c3ncc4c(c3c2-c2ccc3c(cnn3C)c2)n([C@H]2C[C@@H](CC#N)C2)c(=O)n4C)cn1 [Example 101, 2-((1S,3S)-3-(3-Methyl-8-(1-methyl-1H-indazol-5-yl)-7-(1-methyl-1H-pyrazol-4-yl)-2-oxo-3,6-dihydroimidazo[4,5-d]pyrrolo[2,3-b]pyridin-1(2H)-yl)cyclobutyl)acetonitrile] | 100 to 500 | ≤ 10 | ≤ 10 |
| Cn1cc(-c2[nH]c3ncc4c(c3c2-c2ccc3c(cnn3C)c2)n([C@H]2CC[C@@H](CC#N)CC2)c(=O)n4C)cn1 [Example 102, 2-((1S,4S)-4-(3-Methyl-8-(1-methyl-1H-indazol-5-yl)-7-(1-methyl-1H-pyrazol-4-yl)-2-oxo-3,6-dihydroimidazo[4,5-d]pyrrolo[2,3-b]pyridin-1(2H)-yl)cyclohexyl)acetonitrile] | 10 to 100 | ≤ 10 | ≤ 10 |
| Cn1ncc2cc(-c3c(-c4cnn(CC(C)(C)O)c4)[nH]c4ncc5c(c34)n([C@H]3CC[C@@H](CC#N)CC3)c(=O)n5C)ccc21 [Example 103, 2-((1S,4S)-4-(7-(1-(2-Hydroxy-2-methylpropyl)-1H-pyrazol-4-yl)-3-methyl-8-(1-methyl-1H-indazol-5-yl)-2-oxo-3,6-dihydroimidazo[4,5-d]pyrrolo[2,3-b]pyridin-1(2H)-yl)cyclohexyl)acetonitrile] | 100 to 500 | ≤ 10 | ≤ 10 |
| COC(=O)N[C@H]1C[C@@H](n2c(=O)n(C)c3cnc4[nH]c(-c5cnn(C)c5)c(-c5ccc6c(cnn6C)c5)c4c32)C1 [Example 104, Methyl ((1S,3S)-3-(3-methyl-8-(1-methyl-1H-indazol-5-yl)-7-(1-methyl-1H-pyrazol-4-yl)-2-oxo-3,6-dihydroimidazo[4,5-d]pyrrolo[2,3-b]pyridin-1(2H)-yl)cyclobutyl)carbamate] | 500 to 1000 | ≤ 10 | ≤ 10 |
